In patent US12391653B2, “Salt form and crystal form of mutant IDH1 inhibitor and preparation method therefor” (KPC PHARMACEUTICALS, INC, priority 2019, dated 2025):

What was measured:
[1] = target: T1, U87MG IDH1-R132H (Homo sapiens, UniProt O75874, R132H); assay: IDH1 cytological activity test, 2HG content in cell culture supernatant by LC-MS; format: cell-based
T1 construct: expressed in transfected cells; host or cells: U87MG
Procedure: In this study, after co-incubating the compound with IDH1 mutant cell lines, the 2HG content in the cell culture supernatant was detected by LC-MS to determine the inhibitory activity of the compound on IDH1 mutants. IDH1 catalyzes the reduction of isocitrate to α-ketoglutaric acid (α-KG) in vivo, while IDH1 mutants further catalyze the reduction of α-KG to 2-hydroxyglutaric acid (2HG).
U87MG-IDH1-R132H cell line is a stable transfected cell line that can stably express IDH1-R132H mutant by transfecting U87MG cells with IDH1-R132H, and HT1080 cell line contains endogenous IDH1-R132C mutant.
The experimental process is as follows:
1) The compound was 3-fold serially diluted with DMSO and added to a cell culture plate, with a total of 10 concentrations, each concentration in duplicate. Negative control wells contained DMSO only, and positive control wells contained BAY1436032 at a final concentration of 5 μM. The final concentration of DMSO in all wells was 0.5%.
2) The IDH1 mutant cell line was seeded into the compound-containing cell culture plate at a density of 40,000 cells/well. Cells were co-incubated with compounds for 3 days in a 37° C., 5% CO2 incubator.
3) After 3 days, 10 μl of cell culture supernatant was taken, diluted 21 times with 200 μl of ddH2O to 210 μl and mixed well. […]

[2] = target: IDH1 (R132C) (Homo sapiens, UniProt O75874, R132C); assay: IDH1 enzyme activity test in vitro (IDH1 R132C); format: biochemical
IDH1 (R132C), sequence (O75874 whole entry R132C): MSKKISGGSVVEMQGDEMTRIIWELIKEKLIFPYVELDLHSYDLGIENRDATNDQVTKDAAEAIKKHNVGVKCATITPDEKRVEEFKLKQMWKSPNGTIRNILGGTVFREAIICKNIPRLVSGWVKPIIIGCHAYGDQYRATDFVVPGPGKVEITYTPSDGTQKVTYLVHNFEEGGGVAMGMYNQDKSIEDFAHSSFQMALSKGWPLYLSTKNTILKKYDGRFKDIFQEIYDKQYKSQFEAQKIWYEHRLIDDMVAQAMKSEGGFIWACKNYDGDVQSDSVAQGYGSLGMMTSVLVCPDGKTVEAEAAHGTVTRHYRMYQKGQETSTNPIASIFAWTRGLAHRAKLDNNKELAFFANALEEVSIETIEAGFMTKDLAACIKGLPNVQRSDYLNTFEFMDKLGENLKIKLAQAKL
Procedure: (§1) IDH1 mutant catalyzes the NADPH-dependent reduction of α-KG (α-ketoglutaric acid) to 2-HG (2-hydroxyglutaric acid), and the consumed NADPH can be read out by fluorescence.
(§2) Basic reaction buffer: 50 mM KH2PO4, pH 7.5, 10 mM […], 10% glycerol, 150 mM NaCl, 0.05% BSA (bovine serum albumin), 2 mM b-ME (2-mercaptoethanol), 0.003% Brij35 (oxyethylene lauryl ether)
(§3) Substrates and cCofactors:
(§4) 1.33× enzyme (no control wells), buffer and NADP or NADPH (control wells) were added to the wells of a reaction plate. The compounds to be tested were dissolved in 100% DMSO, then added to the enzyme mixture (Echo550, nanoliter level) and incubated for 60 min after brief centrifugation. A mixture of 4× substrate and cofactor was added to start the reaction, briefly centrifuged, shaken, and incubated at room temperature for 45 min. A mixture of 3× lipoamide dehydrogenase and resazurin was prepared, added to the reaction solution to test the amount of the generated or remaining NADPH, incubated at room temperature for 10 min after simple centrifugation, and measured using a multifunctional microplate reader Envision (Ex/Em±535/590 nm).

[3] = target: IDH1 wt (wild type) (Homo sapiens, UniProt O75874); assay: IDH1 enzyme activity test in vitro (IDH1 wild type); format: biochemical
IDH1 wt (wild type), sequence (O75874 whole entry): as the sequence (O75874 whole entry R132C) above, with C132R counted along it
Procedure: as §1, §2, §3
IDH1 wt (wild type): 65 μM isocitrate ±50 μM NADP
as §4

[4] = target: IDH1 (R132H) (Homo sapiens, UniProt O75874, R132H); assay: IDH1 enzyme activity test in vitro (IDH1 R132H); format: biochemical
IDH1 (R132H), sequence (O75874 whole entry R132H): as the sequence (O75874 whole entry R132C) above, with C132H counted along it
Procedure: as §1, §2, §3, §4

[5] = Pharmacokinetic evaluation in mice; parameters: species or system CD-1 mice; conditions: mouse, in vivo
Procedure: The pharmacokinetic parameters of the compound represented by formula (I) were detected in mice.
1) Experimental drug: compound represented by formula (I);
2) Experimental animals: 8 male CD-1 mice aged 7-10 weeks, divided into 2 groups, 4 mice in each group;
3) Drug preparation: for the tail vein injection group, an appropriate amount of the drug was weighed out and dissolved in a mixed solvent of DMSO: 20% hydroxypropyl beta-cyclodextrin (HPbCD)±10:90 to prepare a solution of 0.5 mg/mL; for the gavage administration group, an appropriate amount of the drug was weighed out and dissolved in a mixed solvent of DMSO: polyoxyethylene castor oil EL (Cremophor EL): 5% sulfobutylcyclodextrin (Captisol)±5:10:85 to prepare into a suspension.
Animals in group 1 were given a single dose of 1 mg/kg drug at a concentration of 0.5 mg/mL via tail vein injection, and animals in group 2 were given the compound at a dose of 20 mg/kg at a concentration of 2 mg/mL by gavage. Animals were cross-collected for plasma samples at 0.0833 (the tail vein injection group only), 0.25, 0.5, 1, 2, 4, 6, 8 and 24 h after administration. The drug concentration in the plasma samples was determined by LC-MS/MS method, and the kinetic parameters of the tested drugs were obtained in Table 11: […]

[6] = Solid stability test (crystalline form by XRPD); format: physicochemical
Procedure: According to the “Guidelines for Stability Test of Raw Materials and Preparations” (General Principles 9001 of Part Four of Chinese Pharmacopoeia 2015 Edition), crystalline form E of the compound represented by formula (I) was investigated for stability at high temperature (60° C., open), high humidity (room temperature/relative humidity 92.5%, open) and strong light (5000 lx, closed).
About 10 mg of compound represented by formula (I) was accurately weighed out, placed in a dry and clean glass bottle, spread out into a thin layer and covered with aluminum foil with small holes under the influence factor test conditions (60° C., 92.5% RH) and accelerated conditions (40° C./75% RH and 60° C./75% RH). The samples placed under the condition of light (visible light 1200000 Lux, ultraviolet 200 W) were in transparent glass bottles, with one group fully exposed and the other fully packaged with aluminum foil. Samples in duplicate were placed under each condition at each time point, and the samples for XRPD detection were placed separately. Samples placed under different conditions were sampled for XRPD detection at the planned test end point, and the test results were compared with the initial test results at Day 0.

[7] = Solid stability test (crystalline form by XRPD); format: physicochemical; conditions: Light (total illuminance = 1.2 × 10^6 Lux, Near UV = 200 w · hr/m^2, open)
[8] = Hygroscopicity study by dynamic vapor sorption (DVS); format: physicochemical; conditions: 25° C. and 80% RH
Procedure: Dynamic Vapor Sorption (DVS) Method of the Present Disclosure
Instrument model: SMS DVS intrinsic dynamic moisture adsorption instrument
Test conditions: 10 mg of the sample was weighed out and placed in a DVS sample tray for testing.
The detailed DVS parameters were as follows:
RH (%) test gradient range: 0%-95%-0%
The hygroscopicity evaluation is classified as follows:
SMS DVS intrinsic Dynamic Vapor Sorption Instrument

T1 sequence (O75874 whole entry R132H): as the sequence (O75874 whole entry R132C) above, with C132H counted along it

Row | 2-HG inhibitory effect on U87MG glioma cells with IDH1R132H mutation [1] | IC50 ([1]; 2-HG inhibition, cells co-incubated with compound for 3 days) | inhibitory effect on mutant IDH1R132C at the enzymatic level [2] | inhibitory effect on wild-type IDH protein [3] | inhibitory effect on mutant IDH1R132H at the enzymatic level [4] | pharmacokinetic properties in mice [5] | Crystalline form ([6]; 0 days (initial)) | Crystalline form ([6]; 25° C./92.5% RH, open, 5 days) | Crystalline form ([6]; 25° C./92.5% RH, open, 10 days) | Crystalline form ([6]; 40° C./75% RH, open, 1 month) | Crystalline form ([6]; 40° C./75% RH, open, 2 months) | Crystalline form ([6]; 40° C./75% RH, open, 3 months) | Crystalline form ([6]; 60° C., open, 5 days) | Crystalline form ([6]; 60° C., open, 10 days) | Crystalline form ([6]; 60° C./75% RH, open, 1 month) | Crystalline form ([6]; 60° C./75% RH, open, 2 months) | Crystalline form ([7]; 5 days) | Crystalline form ([7]; 10 days) | Hygroscopic classification [8] | hygroscopic weight gain ΔW [8] | Structure (SMILES)
1 | good 2-HG inhibitory effect | 38.2 nM | good inhibitory effect | no inhibitory effect | good inhibitory effect | good pharmacokinetic properties | – | – | – | – | – | – | – | – | – | – | – | – | – | – | O=C(O)CCc1ccc2c(c1)nc(Nc1ccc(OC(F)(F)F)cc1)n2[C@@H]1CCCc2ccccc21 [Compound represented by formula (I)]
2 | – | – | – | – | – | – | Crystalline form B | Crystalline form B | Crystalline form B | Crystalline form B | Crystalline form B | Crystalline form B | Crystalline form B | Crystalline form B | Crystalline form B | Crystalline form B | Crystalline form B | Crystalline form B | non-hygroscopic | 0.09% | O=C(O)CCc1ccc2c(c1)nc(Nc1ccc(OC(F)(F)F)cc1)n2[C@@H]1CCCc2ccccc21
